Assay results reported in patent US20100297156A1, “ANALOGUES OF PHOSPHATIDYLINOSITOL MANNOSIDES” (INDUSTRIAL RESEARCH LIMITED, priority 2006, published 2010).

Assays:
[1] = test system: mouse dendritic cells (DC); assay: IL-12 induction in in vitro mouse dendritic cell (DC) assay, IL-12 ELISA; format: cell-based; details: 50 μg of each compound; supernatants collected 48 hours after stimulation
Description: Bone marrow contents of C57BU6 mice were obtained from the femurs, by flushing the inside of the bones with media (see below). Cells were then incubated in complete medium with 0.2 U/mI of recombinant GM-CSF and 200 U/ml of recombinant IL-4 (Both from Serotec, Oxford, UK), replenished daily. After 3-4 days, fresh media and cytokines were added to cells. Cells were harvested after 7-10 days of culture, washed three times and adjusted to desired cell numbers. When harvested, cells were more than 95% DCs based on the following: DCs lacked B and T cells markers had high expression of MHC class 2 and class 1 (Serotec), and had low expression of CD11a (Serotec) and CD14 (Serotec), and expressed CD11c (Serotec). […]
(§1) Plates (Maxisorp, Nunc, Denmark) were coated with 8 μg/ml anti-IL-12 (B @ D Pharmaceuticals) and incubated overnight at room temperature. […] Following the final washing step, TMB substrate was added, the reaction was stopped by the addition of H2SO4, and the absorbance values were read at 450 nm.
IL-10 and IL-12 inducing activities of compounds 1.9, 2.5, 3.5, 4,6, 5.3, 6.2, 7.10, 8.6, 9.2, and 10.3 were tested in an in vitro mouse dendritic cell (DC) assay (FIG. 2). […] Supernatants were collected 48 hours after stimulation, and IL-12 and IL-10 levels measured.

[2] = test system: bovine dendritic cells (DC); assay: IL-12 induction in in vitro bovine dendritic cell (DC) assay, IL-12 ELISA; format: cell-based; details: 50 μg of each compound; supernatants collected 48 hours after stimulation
Description: Peripheral blood mononuclear cells (PBMCs) were isolated from heparinized blood of cattle by density-gradient centrifugation. Cells were adjusted to 10^7/ml in RPMI-1640 medium containing 10% heat-inactivated FCS, 10 mM HEPES, 5×10^−5 M 2-mercaptoethanol. Non-adherent cells were removed after 3 hours by washing with warm phosphate buffered saline (PBS). Adherent cells were then incubated in complete medium with 0.2 U/mI of recombinant bovine GM-CSF and 200 U/ml of recombinant bovine IL-4 (Both from Serotec, Oxford, UK), replenished daily. After 3-4 days, fresh media and cytokines were added to cells. Cells were harvested after 7-10 days of culture, washed three times and adjusted to desired cell numbers. […]
as §1
Th1 inducing activities of compounds 1.9 and 2.5 were tested in an in vitro bovine dendritic cell (DC) assay (FIG. 1). […] Supernatants were collected 48 hours after stimulation, and IL-12 levels measured.

Row | SMILES | Induction of IL-12 on mouse dendritic cells [1] | Induction of IL-12 on bovine dendritic cells [2]
1 | CCCCCCCCCCCCCCCCO[C@H](COC(=O)CCCCCCCCCCCCCCC)COP(=O)(O)O[C@@H]1C(O[C@H]2OC(CO)[C@@H](O)[C@H](O)C2O)C(O)[C@@H](O)[C@H](O)C1O[C@H]1OC(CO)[C@@H](O)C(O)[C@H]1O (stereo partly drawn) [Compound 1.9, 2,6-(Di-O-α-D-mannopyranosyl)-1-O-(1-O-hexadecanoyl-2-O-hexadecyl-sn-glycero-3-phosphoryl)-D-myo-inositol] | the most potent inducing more IL-12 than the positive controls MPL and PAMCSK | very high levels of IL-12
2 | CCCCCCCCCCCCCCCCOC[C@H](COP(=O)(O)O[C@@H]1C(O[C@H]2OC(CO)[C@@H](O)[C@H](O)C2O)C(O)[C@@H](O)[C@H](O)C1O[C@H]1OC(CO)[C@@H](O)C(O)[C@H]1O)OC(=O)CCCCCCCCCCCCCCC (stereo partly drawn) [Compound 4.6, 2,6-(Di-O-α-D-mannopyranosyl)-1-O-(2-hexadecanoyl-1-O-hexadecyl-sn-glycero-3-phosphoryl)-D-myo-inositol] | the most potent inducing more IL-12 than the positive controls MPL and PAMCSK | 
